18 compounds from patent publication US12540118B2, “Dendrene amide compound, bactericide and use thereof” (Jiangsu Flag Chemical Industry Co., Ltd., priority 2020, dated 2026) can be followed below.

The structures appear in SMILES notation. A value given as a limit tells only on which side of the number the result lay.

For the first experiment, the system named is Sphaerotheca fuliginea. As to the kind of experiment: Sphaerotheca fuliginea potting method. Format: in vivo. Particulars: Podosphaera fuliginea; 100 mg/L; read-out: Sphaerotheca fuliginea control rating. How it is done:
The fungicidal activity of the control agents and target compounds are determined. The test and investigation method refers to SOP-SC-1101 sphaerotheca fuliginea potting method in disinfectant rolls written by KANGZHUO and GUBAOGEN in “Standard operation specification for testing biological activity of pesticides”.
On to `Cn1nc(C(F)F)c(C(=O)N(CC(=C(Cl)Cl)c2ccc(Cl)cc2Cl)C2CC2)c1F` [Compound 118], for which the pest or weed control at 100 µg/mL is 80 to 100%.
Still for that read-out and setting: under `Cn1nc(C(F)F)c(C(=O)N(CC(=C(Cl)Cl)c2cccc(S(C)(=O)=O)c2)C2CC2)c1F` [Compound 160] stands 80 to 100%; under `Cn1nc(C(F)F)c(C(=O)N(CC(=C(Cl)Cl)c2ccc(F)cc2Cl)C2CC2)c1F` [Compound 154], 80 to 100%.
On the same count and under the same terms, to `CC(C(=C(Cl)Cl)c1ccc(Cl)c(Cl)c1)N(C(=O)c1c(C(F)F)nn(C)c1F)C1CC1` (stereo not shown) [Compound 173] belongs 80 to 100%; to `C=C(c1ccc(F)c(F)c1)C(C)N(C(=O)c1c(C(F)F)nn(C)c1F)C1CC1` (stereo not shown) [Compound 62], 80 to 100%.
The same measure, in the same setting: under `C=C(c1c(F)cc(F)cc1F)C(C)N(C(=O)c1c(C(F)F)nn(C)c1F)C1CC1` (stereo not shown) [Compound 79] stands 80 to 100%.
As to `CC(C(=C(Cl)Cl)c1ccc(Br)c(Br)c1)N(C(=O)c1c(C(F)F)nn(C)c1F)C1CC1` (stereo not shown) [Compound 191], the pest or weed control at 100 µg/mL was 80 to 100%.
On the same count and under the same terms, under `C=C(c1c(C)cc(C)cc1C)C(C)N(C(=O)c1c(C(F)F)nn(C)c1F)C1CC1` (stereo not shown) [Compound 91] stands 80 to 100%; under `C=C(CN(C(=O)c1c(C(F)F)nn(C)c1F)C1CC1)c1cc(Cl)ccc1F` [Compound 44], 80 to 100%; under `C=C(CN(C(=O)c1c(C(F)F)nn(C)c1F)C1CC1)c1cc(C)ccc1C(C)C` [Compound 38], 70 to 80%.
For `C=C(CN(C(=O)c1c(C(F)F)nn(C)c1F)C1CC1)c1cccc(Cl)c1Cl` [Compound 8], the pest or weed control at 100 µg/mL is 80 to 100%.
On the same count and under the same terms, under `CC(C(=C(Cl)Cl)c1ccc(Cl)cc1Cl)N(C(=O)c1c(C(F)F)nn(C)c1F)C1CC1` (stereo not shown) [Compound 170] stands 80 to 100%; under `C=C(CN(C(=O)c1c(C(F)F)nn(C)c1F)C1CC1)c1ccc(S(C)(=O)=O)cc1` [Compound 15], 70 to 80%.
Consider `Cc1cc(C(C)C)ccc1C(CN(C(=O)c1c(C(F)F)nn(C)c1F)C1CC1)=C(Cl)Cl` [Compound 148], for which the pest or weed control at 100 µg/mL fell in the range of 80 to 100%.
The same measure, in the same setting: under `C=C(c1cccc(C)c1)C(C)N(C(=O)c1c(C(F)F)nn(C)c1F)C1CC1` (stereo not shown) [Compound 70] stands 80 to 100%; under `C=C(c1c(Cl)cc(Cl)cc1Cl)C(C)N(C(=O)c1c(C(F)F)nn(C)c1F)C1CC1` (stereo not shown) [Compound 74], 80 to 100%; under `CC(C(=C(Cl)Cl)c1ccc(F)cc1Cl)N(C(=O)c1c(C(F)F)nn(C)c1F)C1CC1` (stereo not shown) [Compound 207], 80 to 100%.
Still for that read-out and setting: under `C=C(CN(C(=O)c1c(C(F)F)nn(C)c1F)C1CC1)c1c(C)cc(C)cc1C` [Compound 36] stands 80 to 100%.

In a further experiment the test system is Erysiphe graminis. As to the kind of experiment: Erysiphe graminis potting method. To be noted: Blumeria graminis; 6.25 mg/L; read-out: Erysiphe graminis control rating. Format: in vivo. How it is done:
The fungicidal activity of the control agents and target compounds are determined. The test and investigation method refers to SOP-SC-1116 Erysiphe graminis potting method in disinfectant rolls written by KANGZHUO and GUBAOGEN in “Standard operation specification for testing biological activity of pesticides”.
As for `C=C(CN(C(=O)c1c(C(F)F)nn(C)c1F)C1CC1)c1cc(C)ccc1C(C)C` [Compound 38], the pest or weed control at 6.25 µg/mL is 70 to 80%.
For the compound `C=C(CN(C(=O)c1c(C(F)F)nn(C)c1F)C1CC1)c1c(C)cc(C)cc1C` [Compound 36], the pest or weed control at 6.25 µg/mL fell in the range of 80 to 100%.

Staying with this experiment, now noted: Blumeria graminis; 25 mg/L; read-out: Erysiphe graminis control rating.
For the compound `C=C(CN(C(=O)c1c(C(F)F)nn(C)c1F)C1CC1)c1cc(C)ccc1C(C)C` [Compound 38], the pest or weed control at 25 µg/mL was in the range of 80 to 100%.
The same measure, in the same setting: under `C=C(CN(C(=O)c1c(C(F)F)nn(C)c1F)C1CC1)c1c(C)cc(C)cc1C` [Compound 36] stands 80 to 100%.

The experiment is the same for the next values; noted with them: Blumeria graminis; 100 mg/L; read-out: Erysiphe graminis control rating.
Consider `Cn1nc(C(F)F)c(C(=O)N(CC(=C(Cl)Cl)c2ccc(Cl)cc2Cl)C2CC2)c1F` [Compound 118], for which the pest or weed control at 100 µg/mL was 80 to 100%.
Same read-out and setting: under `Cn1nc(C(F)F)c(C(=O)N(CC(=C(Cl)Cl)c2cccc(S(C)(=O)=O)c2)C2CC2)c1F` [Compound 160] stands 80 to 100%.
Still for that read-out and setting: to `Cn1nc(C(F)F)c(C(=O)N(CC(=C(Cl)Cl)c2ccc(F)cc2Cl)C2CC2)c1F` [Compound 154] belongs 80 to 100%; to `CC(C(=C(Cl)Cl)c1ccc(Cl)c(Cl)c1)N(C(=O)c1c(C(F)F)nn(C)c1F)C1CC1` (stereo not shown) [Compound 173], 80 to 100%; to `C=C(c1ccc(F)c(F)c1)C(C)N(C(=O)c1c(C(F)F)nn(C)c1F)C1CC1` (stereo not shown) [Compound 62], 80 to 100%.
Still for that read-out and setting: to `C=C(c1c(F)cc(F)cc1F)C(C)N(C(=O)c1c(C(F)F)nn(C)c1F)C1CC1` (stereo not shown) [Compound 79] belongs 80 to 100%; to `CC(C(=C(Cl)Cl)c1ccc(Br)c(Br)c1)N(C(=O)c1c(C(F)F)nn(C)c1F)C1CC1` (stereo not shown) [Compound 191], 80 to 100%.
As to `C=C(c1c(C)cc(C)cc1C)C(C)N(C(=O)c1c(C(F)F)nn(C)c1F)C1CC1` (stereo not shown) [Compound 91], the pest or weed control at 100 µg/mL lay within 80 to 100%.
For the compound `C=C(CN(C(=O)c1c(C(F)F)nn(C)c1F)C1CC1)c1cc(Cl)ccc1F` [Compound 44], the pest or weed control at 100 µg/mL was 80 to 100%.
Regarding `C=C(CN(C(=O)c1c(C(F)F)nn(C)c1F)C1CC1)c1cc(C)ccc1C(C)C` [Compound 38], the pest or weed control at 100 µg/mL is 80 to 100%.
Still for that read-out and setting: to `C=C(CN(C(=O)c1c(C(F)F)nn(C)c1F)C1CC1)c1cccc(Cl)c1Cl` [Compound 8] belongs 80 to 100%; to `CC(C(=C(Cl)Cl)c1ccc(Cl)cc1Cl)N(C(=O)c1c(C(F)F)nn(C)c1F)C1CC1` (stereo not shown) [Compound 170], 80 to 100%.
Same read-out and setting: under `C=C(CN(C(=O)c1c(C(F)F)nn(C)c1F)C1CC1)c1ccc(S(C)(=O)=O)cc1` [Compound 15] stands 80 to 100%.
The same measure, in the same setting: under `Cc1cc(C(C)C)ccc1C(CN(C(=O)c1c(C(F)F)nn(C)c1F)C1CC1)=C(Cl)Cl` [Compound 148] stands 80 to 100%.
On to `C=C(c1cccc(C)c1)C(C)N(C(=O)c1c(C(F)F)nn(C)c1F)C1CC1` (stereo not shown) [Compound 70], for which the pest or weed control at 100 µg/mL is 80 to 100%.
Same read-out and setting: under `C=C(c1c(Cl)cc(Cl)cc1Cl)C(C)N(C(=O)c1c(C(F)F)nn(C)c1F)C1CC1` (stereo not shown) [Compound 74] stands 80 to 100%.
Same read-out and setting: to `CC(C(=C(Cl)Cl)c1ccc(F)cc1Cl)N(C(=O)c1c(C(F)F)nn(C)c1F)C1CC1` (stereo not shown) [Compound 207] belongs 80 to 100%; to `C=C(CN(C(=O)c1c(C(F)F)nn(C)c1F)C1CC1)c1c(C)cc(C)cc1C` [Compound 36], 80 to 100%.

A further experiment deals with T1, succinate dehydrogenase (Sus scrofa, UniProt A5GZW8+D0VWV4+Q007T0).
T1 construct: isolated from porcine hearts; from tissue; host or cells: porcine heart
T1 sequence (Q0QF01 43-664 partner): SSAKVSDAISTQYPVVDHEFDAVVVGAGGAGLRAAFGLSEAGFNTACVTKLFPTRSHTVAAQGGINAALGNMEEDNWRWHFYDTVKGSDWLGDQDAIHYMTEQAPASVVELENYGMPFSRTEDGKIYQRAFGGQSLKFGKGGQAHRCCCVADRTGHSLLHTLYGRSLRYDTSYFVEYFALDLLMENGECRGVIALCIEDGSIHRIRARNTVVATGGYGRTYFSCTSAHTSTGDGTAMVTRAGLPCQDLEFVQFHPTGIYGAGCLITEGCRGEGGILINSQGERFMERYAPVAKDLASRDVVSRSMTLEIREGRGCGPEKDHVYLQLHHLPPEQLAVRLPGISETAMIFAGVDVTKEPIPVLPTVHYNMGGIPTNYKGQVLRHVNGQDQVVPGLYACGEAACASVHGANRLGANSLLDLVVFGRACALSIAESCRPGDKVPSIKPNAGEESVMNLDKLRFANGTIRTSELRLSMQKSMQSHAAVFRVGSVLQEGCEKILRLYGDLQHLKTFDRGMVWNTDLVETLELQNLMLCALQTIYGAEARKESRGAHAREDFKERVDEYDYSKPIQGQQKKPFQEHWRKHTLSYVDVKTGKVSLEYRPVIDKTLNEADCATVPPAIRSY
T1 sequence (Q007T0 29-280): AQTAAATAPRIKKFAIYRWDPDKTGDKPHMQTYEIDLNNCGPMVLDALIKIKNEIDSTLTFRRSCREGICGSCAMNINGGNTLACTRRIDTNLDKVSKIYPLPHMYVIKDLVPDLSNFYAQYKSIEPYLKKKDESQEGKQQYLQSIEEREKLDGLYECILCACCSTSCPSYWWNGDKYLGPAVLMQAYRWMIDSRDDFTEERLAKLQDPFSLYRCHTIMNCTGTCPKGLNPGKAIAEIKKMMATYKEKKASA
T1 sequence (D0VWV4 30-169): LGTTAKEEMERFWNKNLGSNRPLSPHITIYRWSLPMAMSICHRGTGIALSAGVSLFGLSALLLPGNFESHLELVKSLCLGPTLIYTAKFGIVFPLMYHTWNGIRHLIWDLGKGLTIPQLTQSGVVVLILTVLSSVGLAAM
T1 sequence (A5GZW8 57-159 limits assumed): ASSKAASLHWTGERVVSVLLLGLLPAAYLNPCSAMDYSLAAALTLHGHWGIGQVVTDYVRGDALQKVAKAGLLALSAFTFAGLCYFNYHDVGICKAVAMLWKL
The experiment can be described thus: Enzyme activity assay, succinate dehydrogenase (DCIP reduction). Format: biochemical, porcine. To be noted: read-out: Inhibitors (10 μM, SQR). The gist of the method:
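Porcine heart succinate dehydrogenase (2 nM) in 100 mM sodium phosphate pH 7.4, 0.3 mM EDTA, 20 mM sodium succinate and 53 μM DCIP at 23° C with stirring. DCIP reduction followed at 600 nm (ε 21 mM^−1 cm^−1); linear slope minus baseline gives initial rate.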
Turning to `Cn1nc(C(F)F)c(C(=O)N(CC(=C(Cl)Cl)c2ccc(Cl)cc2Cl)C2CC2)c1F` [Compound 118], the inhibition at 10 µM was more than 90%.
Regarding `Cn1nc(C(F)F)c(C(=O)N(CC(=C(Cl)Cl)c2cccc(S(C)(=O)=O)c2)C2CC2)c1F` [Compound 160], the inhibition at 10 µM was more than 90%.
Same read-out and setting: under `Cn1nc(C(F)F)c(C(=O)N(CC(=C(Cl)Cl)c2ccc(F)cc2Cl)C2CC2)c1F` [Compound 154] stands more than 90%; under `CC(C(=C(Cl)Cl)c1ccc(Cl)c(Cl)c1)N(C(=O)c1c(C(F)F)nn(C)c1F)C1CC1` (stereo not shown) [Compound 173], more than 90%; under `C=C(c1ccc(F)c(F)c1)C(C)N(C(=O)c1c(C(F)F)nn(C)c1F)C1CC1` (stereo not shown) [Compound 62], more than 90%.
Take `C=C(c1c(F)cc(F)cc1F)C(C)N(C(=O)c1c(C(F)F)nn(C)c1F)C1CC1` (stereo not shown) [Compound 79]: the inhibition at 10 µM is more than 90%.
Same read-out and setting: under `CC(C(=C(Cl)Cl)c1ccc(Br)c(Br)c1)N(C(=O)c1c(C(F)F)nn(C)c1F)C1CC1` (stereo not shown) [Compound 191] stands more than 90%.
The same measure, in the same setting: to `C=C(c1c(C)cc(C)cc1C)C(C)N(C(=O)c1c(C(F)F)nn(C)c1F)C1CC1` (stereo not shown) [Compound 91] belongs more than 90%; to `C=C(CN(C(=O)c1c(C(F)F)nn(C)c1F)C1CC1)c1cc(Cl)ccc1F` [Compound 44], more than 90%; to `C=C(CN(C(=O)c1c(C(F)F)nn(C)c1F)C1CC1)c1cc(C)ccc1C(C)C` [Compound 38], more than 90%.
Turning to `C=C(CN(C(=O)c1c(C(F)F)nn(C)c1F)C1CC1)c1cccc(Cl)c1Cl` [Compound 8], the inhibition at 10 µM is more than 90%.
Same read-out and setting: to `CC(C(=C(Cl)Cl)c1ccc(Cl)cc1Cl)N(C(=O)c1c(C(F)F)nn(C)c1F)C1CC1` (stereo not shown) [Compound 170] belongs more than 90%; to `C=C(CN(C(=O)c1c(C(F)F)nn(C)c1F)C1CC1)c1ccc(S(C)(=O)=O)cc1` [Compound 15], more than 90%; to `Cc1cc(C(C)C)ccc1C(CN(C(=O)c1c(C(F)F)nn(C)c1F)C1CC1)=C(Cl)Cl` [Compound 148], more than 90%.
The same measure, in the same setting: to `C=C(c1cccc(C)c1)C(C)N(C(=O)c1c(C(F)F)nn(C)c1F)C1CC1` (stereo not shown) [Compound 70] belongs more than 90%.
Same read-out and setting: to `C=C(c1c(Cl)cc(Cl)cc1Cl)C(C)N(C(=O)c1c(C(F)F)nn(C)c1F)C1CC1` (stereo not shown) [Compound 74] belongs more than 90%; to `CC(C(=C(Cl)Cl)c1ccc(F)cc1Cl)N(C(=O)c1c(C(F)F)nn(C)c1F)C1CC1` (stereo not shown) [Compound 207], more than 90%; to `C=C(CN(C(=O)c1c(C(F)F)nn(C)c1F)C1CC1)c1c(C)cc(C)cc1C` [Compound 36], more than 90%.
